Measured values: US4985560A, “Pyridazino(4,5-b)indolizines” (American Home Products Corporation, priority 1990, dated 1991)
Several values for one entry are separate records, joined by “and”; a condition that tells them apart may be missing. Identical values can stand only once. Each block holds one compound with its values, some of them ahead of it.

Experiments:
[1] = tested on: memory loss; settings: cited from earlier work
[2] = tested on: male Sprague-Dawley (Charles River) rats; test: Radial arm maze test, scopolamine impairment; format: in vivo, rat; settings: for scopolamine impairment in delay, current and total errors / time compared to scopolamine / delay, current and total errors versus vehicle / time measures versus vehicle: first experiment (Table 2); for scopolamine impairment in delay, current and total errors / time compared to scopolamine: versus scopolamine
Text: The compound of Example 1 was also studied in the radial arm maze test where male Sprague-Dawley (Charles River) rats on a 23-hour food deprivation schedule were trained in an eight arm radial maze with all arms baited. Each session consisted of two maze exposures, with a time limit of 500 seconds for each exposure. After four correct choices (first exposure), each animal was removed from the maze for one hour then returned with only the remaining four arms baited (second exposure). Choice errors, consisting of delay errors (re-entry into any of the four arms chosen during the first exposure) and current errors (re-entry into any of the four arms chosen during the second exposure), as well as total errors were recorded. Durations for each exposure were also recorded. Statistical analysis were preformed using a One-Way Anova with Dunnetts T-Test comparisons.
All compounds were solubilized in distilled water.

[3] = tested on: Alzheimer's patients and healthy elderly patients; settings: cited from earlier work; for clinical efficacy: due to side-effects, short duration of action, narrow active dose range
[4] = tested on: scopolamine-induced hyperactivity (muscarinic M1-mediated effect); test: Reduction of scopolamine-induced hyperactivity (locomotor activity chambers); format: in vivo, rat
Protocol: The motor activity chambers utilize infrared detectors to assess movement in 3 axes. Total activity measures (vertical+horizontal activity) were collected in 15 minute intervals for 1 hour post-injection. Total activity measures were cumulated across all time intervals for statistical analysis.

[5] = target: T1, M2 receptor (Rattus norvegicus, UniProt P10980); test: biochemical; format: binding; settings: read-out: [3H]QNB M2 IC50
T1 sequence (P10980 1-466): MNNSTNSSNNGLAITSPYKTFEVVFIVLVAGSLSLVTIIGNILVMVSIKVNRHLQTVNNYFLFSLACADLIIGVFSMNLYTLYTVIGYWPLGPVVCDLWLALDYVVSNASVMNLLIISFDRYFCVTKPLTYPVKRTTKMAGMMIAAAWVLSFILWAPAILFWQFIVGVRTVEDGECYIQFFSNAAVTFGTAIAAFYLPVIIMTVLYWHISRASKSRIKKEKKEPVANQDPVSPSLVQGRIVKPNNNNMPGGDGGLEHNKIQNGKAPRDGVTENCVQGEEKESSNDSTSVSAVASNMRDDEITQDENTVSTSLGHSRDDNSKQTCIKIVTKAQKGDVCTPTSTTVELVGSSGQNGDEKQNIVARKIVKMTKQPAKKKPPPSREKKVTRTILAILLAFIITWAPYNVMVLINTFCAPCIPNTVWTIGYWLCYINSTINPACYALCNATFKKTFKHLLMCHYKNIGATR

[6] = target: T2, M1 muscarinic receptor (Rattus norvegicus, UniProt P08482); test: [3H]-Pirenzepine M1 receptor binding, rat brain tissue; settings: for IC50: [3H]pirenzepine, rat brain tissue; for M2/M1: ratio of M2 IC50 to M1 IC50
T2 construct: from tissue; host or cells: rat brain tissue
T2 sequence (P08482 1-460): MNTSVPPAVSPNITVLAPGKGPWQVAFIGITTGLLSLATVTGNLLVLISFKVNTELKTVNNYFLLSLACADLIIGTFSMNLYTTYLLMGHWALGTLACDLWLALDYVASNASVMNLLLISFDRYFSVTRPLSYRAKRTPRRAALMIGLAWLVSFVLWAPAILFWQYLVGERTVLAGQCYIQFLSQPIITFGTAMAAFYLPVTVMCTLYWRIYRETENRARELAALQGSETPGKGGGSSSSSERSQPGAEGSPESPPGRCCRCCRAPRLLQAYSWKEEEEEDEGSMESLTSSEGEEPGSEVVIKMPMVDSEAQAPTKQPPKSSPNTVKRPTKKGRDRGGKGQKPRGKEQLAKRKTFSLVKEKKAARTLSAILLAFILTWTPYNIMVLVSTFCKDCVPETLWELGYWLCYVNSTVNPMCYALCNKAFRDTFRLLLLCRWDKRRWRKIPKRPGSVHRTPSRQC

[7] = Table 2, arecoline 10.0 mg/kg i.p., scopolamine-impaired
[8] = Table 3, 1.0 mg/kg i.p. + scopolamine HBr 0.3 mg/kg s.c.
[9] = Table 3, 3.0 mg/kg i.p. + scopolamine HBr 0.3 mg/kg s.c.
[10] = Table 3, 10.0 mg/kg i.p. + scopolamine HBr 0.3 mg/kg s.c.
[11] = Table 2, physostigmine 0.01 mg/kg i.p., scopolamine-impaired
[12] = Table 2, scopolamine HBr 0.3 mg/kg s.c. alone
[13] = Table 3, scopolamine HBr 0.3 mg/kg s.c. alone

Compound: COC(=O)C1=CCCN(C)C1 [Arecoline, arecoline]
reversal of muscarinic antagonist-induced memory deficit, rats ([1]; rats): can be reversed
Mean Errors, Current [2, 7]: 0.75
Mean Errors, Delay [2, 7]: 1.50
Mean Errors, Total [2, 7]: 2.25
Mean Time, Current [2, 7]: 2.32 min
Mean Time, Delay [2, 7]: 1.50 min
Mean Time, Total [2, 7]: 4.06 min
scopolamine impairment in delay, current and total errors [2]: significant reduction in scopolamine impairment in delay, current and total errors
time compared to scopolamine [2]: no significant time reduction versus scopolamine
delay, current and total errors versus vehicle [2]: did not
time measures versus vehicle [2]: significant time increase versus vehicle
clinical efficacy [3]: neither physostigmine nor arecoline have clinical efficacy
dose active in scopolamine-induced hyperactivity test ([4]; route not stated): about 5.4 mg/kg

Compound: Cc1nnc(NCCN(C)C)c2cc3ccccn3c12 [Example 2]
IC50 [5]: 12 µM
IC50 [6]: 0.66 µM
M2/M1 [6]: 18

Compound: Cc1nnc(NCCN2CCOCC2)c2cc3ccccn3c12 [Example 4, N-[2-(4-Morpholinyl)ethyl]-4-methylpyridazino[4,5-b]indolizin-1-amine]
IC50 [5]: 19 µM
IC50 [6]: 2.45 µM
M2/M1 [6]: 8

Compound: Cc1nnc(NCCCN2CCOCC2)c2cc3ccccn3c12 [Example 5, N-[3-(4-Morpholinyl)propyl]-4-methylpyridazino[4,5-b]indolizin-1-amine]
IC50 [5]: 12 µM
IC50 [6]: 0.27 µM
M2/M1 [6]: 44

Compound: Cc1nnc(N2CCN(C)CC2)c2cc3ccccn3c12 [Example 7, 4-Methyl-1-(4'-methylpiperazinyl)pyridazino[4,5-b]indolizine]
IC50 [5]: 29 µM
IC50 [6]: 1 µM
M2/M1 [6]: 29

Compound: CNC(=O)Oc1ccc2c(c1)[C@]1(C)CCN(C)[C@@H]1N2C [Physostigmine, physostigmine]
reversal of muscarinic antagonist-induced memory deficit, humans and monkeys ([1]; humans and monkeys): can be reversed
Mean Errors, Current [2, 11]: 0.88
Mean Errors, Delay [2, 11]: 1.13
Mean Errors, Total [2, 11]: 2.00
Mean Time, Current [2, 11]: 2.01 min
Mean Time, Delay [2, 11]: 1.14 min
Mean Time, Total [2, 11]: 3.25 min
scopolamine impairment in delay, current and total errors [2]: significant reduction in scopolamine impairment in delay, current and total errors
time compared to scopolamine [2]: significant time reduction compared to scopolamine in both delay time (first exposure) and total time
delay, current and total errors versus vehicle [2]: did not
clinical efficacy [3]: neither physostigmine nor arecoline have clinical efficacy

Compound: CN1[C@@H]2C[C@@H](OC(=O)[C@H](CO)c3ccccc3)C[C@H]1[C@@H]1O[C@@H]12 [Scopolamine, scopolamine]
memory loss induced ([1]; normal humans and animals (cat, rat, monkey)): Memory loss
Mean Errors, Current [2, 12]: 3.63
Mean Errors, Total [2, 12]: 6.38
Mean Time, Current [2, 12]: 2.78 min
Mean Time, Delay [2, 12]: 2.28 min
Mean Time, Total [2, 12]: 5.27 min
Mean Errors, Current [2, 13]: 3.57
Mean Errors, Total [2, 13]: 5.72
Mean Time, Current [2, 13]: 2.90 min
Mean Time, Delay [2, 13]: 2.01 min
Mean Time, Total [2, 13]: 5.14 min
delay, current and total errors versus vehicle [2]: significant increase in delay, current and total errors versus vehicle
time measures versus vehicle [2]: increased all time measures compared to vehicle
total errors compared to vehicle ([2]; second experiment (Table 3)): significantly increased total errors compared to vehicle
time measures compared to vehicle ([2]; second experiment (Table 3), scopolamine alone): increased all time measures compared to vehicle
total activity measure ([4]; scopolamine 1.7 mg/kg s.c. alone): significant increase

Compound: lecithin
improvement on cognitive tests ([3]; Alzheimer's patients and healthy elderly patients): No significant improvement

The remaining compounds from weak to strong by IC50 [5], led by results:

IC50 [5]: 9.5 µM
IC50 [6]: 0.6 µM
M2/M1 [6]: 24
Compound: Cc1nnc(NCCCN(C)C)c2cc3ccccn3c12 [Example 3, N,N-Dimethyl-N'-(4-methylpyridazino[4,5-b]indolizin-1-yl)-1,3-propanediamine]

IC50 [5]: 6.2 µM
IC50 [6]: 0.26 µM
M2/M1 [6]: 24
Compound: CCN1CCCC1CNc1nnc(C)c2c1cc1ccccn12 (stereo not drawn) [Example 6, N-[(1-Ethyl-2-pyrrolidinyl)methyl]-4-methylpyridazino[4,5-b]-indolizin-1-amine]

IC50 [5]: 4.1 µM
IC50 [6]: 0.098 µM
M2/M1 [6]: 42
Compound: CCN(CC)CCCNc1nnc(C)c2c1cc1ccccn12 [Example 1, 1-[(3'-Diethylaminopropyl)amino]-4-methylpyridazino[4,5-b]indolizine]
total time compared to scopolamine ([2]; 1.0 mg/kg i.p., Table 3): reduction in time impairment compared to scopolamine
delay time (first exposure) versus vehicle ([2]; 3.0 mg/kg i.p., Table 3): significantly increased
current and total errors, dose trend ([2]; 1, 3, 10 mg/kg i.p., Table 3): definite dose-related decrease in scopolamine impairment
delay errors, dose trend ([2]; 1, 3, 10 mg/kg i.p., Table 3): no dose-related trend
total time versus vehicle ([2]; 3.0 and 10 mg/kg i.p., Table 3): significantly increased
Mean Errors, Current [2, 8]: 2.00
Mean Errors, Delay [2, 8]: 1.83
Mean Errors, Total [2, 8]: 3.67
Mean Time, Current [2, 8]: 1.83 min
Mean Time, Delay [2, 8]: 1.03 min
Mean Time, Total [2, 8]: 2.99 min
Mean Errors, Current [2, 9]: 1.13
Mean Errors, Delay [2, 9]: 2.38
Mean Errors, Total [2, 9]: 3.50
Mean Time, Current [2, 9]: 2.92 min
Mean Time, Delay [2, 9]: 1.95 min
Mean Time, Total [2, 9]: 4.96 min
Mean Errors, Current [2, 10]: 0.75
Mean Errors, Delay [2, 10]: 2.00
Mean Errors, Total [2, 10]: 2.75
Mean Time, Current [2, 10]: 3.32 min
Mean Time, Delay [2, 10]: 1.63 min
Mean Time, Total [2, 10]: 5.15 min
impairment caused by scopolamine ([2]; all doses tested (1, 3, 10 mg/kg i.p.), Table 3): reduced the impairment caused by scopolamine
current time (second exposure) versus vehicle ([2]; all groups, Table 3): significantly increased
cognitive impairment due to cholinergic hypofunction ([2]; overall conclusion): can reduce cognitive impairment
total activity versus vehicle-only controls ([4]; 30 and 54 mg/kg i.p., scopolamine 1.7 mg/kg s.c.): did not differ from vehicle-only controls
dose active in reducing scopolamine-induced hyperactivity ([4]; i.p., scopolamine 1.7 mg/kg s.c., rats): 30 mg/kg and 54 mg/kg

IC50 [5]: 3.5 µM
IC50 [6]: 0.14 µM
M2/M1 [6]: 25
Compound: Cc1nnc(NCCCCN2CCN(C)CC2)c2cc3ccccn3c12 [Example 10, 4-Methyl-N-[4'-methyl(1-piperazinyl)butyl]pyridazino[4,5-b]indolizin-1-amine]

IC50 [5]: 2.8 µM
IC50 [6]: 0.15 µM
M2/M1 [6]: 19
Compound: Cc1nnc(NCCCN2CCN(C)CC2)c2cc3ccccn3c12 [Example 9, 4-Methyl-N-[4'-methyl(1-piperazinyl)propyl]pyridazino[4,5-b]indolizin-1-amine]

IC50 [5]: 1.4 µM
IC50 [6]: 0.11 µM
M2/M1 [6]: 13
Compound: Cc1nnc(NCCCN2CCCCC2)c2cc3ccccn3c12 [Example 8, 4-Methyl-N-[3-(1-piperidinyl)propyl]pyridazino[4,5-b]indolizin-1-amine]
